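Grown in 96-well plates, cells were treated for 48 hours with each compound at five concentrations. Insufficient inhibition: endpoint recorded as highest concentration tested. GI50 is the concentration that inhibits growth by half. Definition used: TGI = concentration required for complete inhibition of growth.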
Columns and labels:
Test in all cases: growth of human tumour cells (NCI), 48 h
[1] = system: HCT-15 colon
[2] = system: PC-3 prostate
[3] = system: SK-MEL-28 melanoma
[4] = system: HCC-2998 colon
[5] = system: KM12 colon
[6] = system: HL-60(TB) leukemia
[7] = system: HS 578T breast
[8] = system: OVCAR-8 ovarian
[9] = system: SW-620 colon
[10] = system: SF-539 CNS
[11] = system: ACHN renal
[12] = system: MDA-MB-231 breast
[13] = system: CCRF-CEM leukemia
[14] = system: SN12C renal
[15] = system: IGROV1 ovarian
[16] = system: BT-549 breast
[17] = system: OVCAR-5 ovarian
[18] = system: UACC-257 melanoma
[19] = system: 786-0 renal
[20] = system: SF-295 CNS
[21] = system: M14 melanoma
[22] = system: MALME-3M melanoma
[23] = system: EKVX NSCLC
[24] = system: U251 CNS
[25] = system: DU-145 prostate
[26] = system: RPMI-8226 leukemia
[27] = system: NCI-H522 lung
[28] = system: NCI/ADR-RES ovarian
[29] = system: RXF 393 renal
[30] = system: COLO 205 colon
[31] = system: NCI-H460 lung
[32] = system: SR leukemia
[33] = system: OVCAR-3 ovarian
[34] = system: NCI-H23 lung
[35] = system: SNB-75 CNS
[36] = system: SNB-19 CNS
[37] = system: MDA-MB-435
[38] = system: UO-31 renal
[39] = system: HOP-62 NSCLC
[40] = system: T-47D breast
[41] = system: UACC-62 melanoma
[42] = system: A549 NSCLC
[43] = system: HOP-92 NSCLC
[44] = system: MCF7 breast
[45] = system: SK-OV-3 ovarian
[46] = system: A498 renal
[47] = system: NCI-H226 lung
[48] = system: SK-MEL-5 melanoma
[49] = system: HCT-116 colon
[50] = system: K-562 leukemia
[51] = system: HT29 colon
[52] = system: LOX IMVI melanoma
[53] = system: MOLT-4 leukemia
[54] = system: OVCAR-4 ovarian
[55] = system: SF-268 CNS
[56] = system: TK-10 renal
[57] = system: CAKI-1 renal
[58] = system: SK-MEL-2 melanoma

Compound: O=C(NN1C(=O)CSC1c1ccc(Cl)cc1)c1[nH]c2ccc(F)cc2c1-c1ccccc1 (stereo unspecified)
- GI50 [1]: 3.9 µM
- TGI [1]: 14.3 µM
- GI50 [2]: 2.72 µM
- TGI [2]: 8.89 µM
- GI50 [3]: 3.23 µM
- TGI [3]: 10.1 µM
- GI50 [4]: 2.31 µM
- TGI [4]: 5.63 µM
- GI50 [5]: 1.61 µM
- TGI [5]: 3.38 µM
- GI50 [6]: 2.75 µM
- TGI [6]: 7.71 µM
- GI50 [7]: 2.84 µM
- TGI [7]: 9.37 µM
- GI50 [8]: 4.34 µM
- TGI [8]: 20.6 µM
- GI50 [9]: 2.98 µM
- TGI [9]: 8.92 µM
- GI50 [10]: 6.08 µM
- TGI [10]: 13.5 µM
- GI50 [11]: 3.28 µM
- TGI [11]: 12.2 µM
- GI50 [12]: 2.81 µM
- TGI [12]: 7.86 µM
- GI50 [13]: 2.17 µM
- TGI [13]: 5.85 µM
- GI50 [14]: 2.87 µM
- TGI [14]: 7.84 µM
- GI50 [15]: 3.89 µM
- TGI [15]: 11.5 µM
- GI50 [16]: 2.09 µM
- TGI [16]: 5.37 µM
- GI50 [17]: 2.64 µM
- TGI [17]: 8.34 µM
- GI50 [18]: 10.5 µM
- TGI [18]: 25.6 µM
- GI50 [19]: 1.89 µM
- TGI [19]: 3.6 µM
- GI50 [20]: 2.86 µM
- TGI [20]: 11.4 µM
- GI50 [21]: 2.5 µM
- TGI [21]: 6.45 µM
- GI50 [22]: 6.03 µM
- TGI [22]: > 42.8 µM
- GI50 [23]: 6.23 µM
- TGI [23]: 24.8 µM
- GI50 [24]: 3.14 µM
- TGI [24]: 8.38 µM
- GI50 [25]: 2.2 µM
- TGI [25]: 4.63 µM
- GI50 [26]: 2.13 µM
- TGI [26]: 6.24 µM
- GI50 [27]: 4.34 µM
- TGI [27]: 14.8 µM
- GI50 [28]: 3 µM
- TGI [28]: 10.6 µM
- GI50 [29]: 3.42 µM
- TGI [29]: 15.4 µM
- GI50 [30]: 2.2 µM
- TGI [30]: 4.81 µM
- GI50 [31]: 2.81 µM
- TGI [31]: 7.84 µM
- GI50 [32]: 2.27 µM
- TGI [32]: 6.27 µM
- GI50 [33]: 1.85 µM
- TGI [33]: 3.53 µM
- GI50 [34]: 2.26 µM
- TGI [34]: 6.59 µM
- GI50 [35]: 5.04 µM
- TGI [35]: 21 µM
- GI50 [36]: 3.79 µM
- TGI [36]: 15.5 µM
- GI50 [37]: 2.94 µM
- TGI [37]: 9.13 µM
- GI50 [38]: 4.07 µM
- TGI [38]: 13.7 µM
- GI50 [39]: 2.34 µM
- TGI [39]: 5.55 µM
- GI50 [40]: 3.73 µM
- TGI [40]: 14.2 µM
- GI50 [41]: 5.38 µM
- TGI [41]: 17.3 µM
- GI50 [42]: 3.58 µM
- TGI [42]: 15.6 µM
- GI50 [43]: 2.42 µM
- TGI [43]: 6.6 µM
- GI50 [44]: 2.85 µM
- TGI [44]: 8.58 µM
- GI50 [45]: 7.25 µM
- TGI [45]: 20 µM
- GI50 [46]: 2.98 µM
- TGI [46]: 9.79 µM
- GI50 [47]: 3.51 µM
- TGI [47]: 9.43 µM
- GI50 [48]: 5.92 µM
- TGI [48]: 16 µM
- GI50 [49]: 1.87 µM
- TGI [49]: 4.11 µM
- GI50 [50]: 2.43 µM
- TGI [50]: 9.51 µM
- GI50 [51]: 3.09 µM
- TGI [51]: 10.5 µM
- GI50 [52]: 2.65 µM
- TGI [52]: 7.18 µM
- GI50 [53]: 2.4 µM
- TGI [53]: 8.17 µM
- GI50 [54]: 6.3 µM
- TGI [54]: 24 µM
- GI50 [55]: 2.51 µM
- TGI [55]: 7.19 µM
- GI50 [56]: 2.31 µM
- TGI [56]: 5.52 µM
- GI50 [57]: 5.07 µM
- TGI [57]: 17.2 µM
- GI50 [58]: 9.61 µM
- TGI [58]: 26.3 µM

— PubChem BioAssay (NCI)
